Common to all, as to test: inhibition of tumour cell growth, NCI panel, 48 h
The subject of assay [1] is SF-295 CNS.
For assay [2], the system named is ACHN renal.
Assay [3] concerns A498 renal.
In assay [4] the test system is UACC-257 melanoma.
Assay [5] has as its system RPMI-8226 leukemia.
Assay [6] has as its system BT-549 breast.
Assay [7] relates to OVCAR-3 ovarian.
For assay [8], the system named is HOP-62 NSCLC.
In assay [9] the test system is COLO 205 colon.
Assay [10] deals with SNB-75 CNS.

Values joined by “and” are separate entries in the source; they are usually repeats but may differ in a detail not shown here. Equal values may be shown once.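 How tested: cells in 96-well plates exposed to compound for 48 hours at five concentrations. At the GI50, growth is halved. TGI: total growth inhibition.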 Where only a bound is given, the exact number is not on record here.

Take `Cc1nc2sc(C(=O)Nc3cccc(Cl)c3C)c(N)c2cc1C(O)c1ccccc1` (stereo unspecified): the GI50 was 0.0333 µM in [1]; 0.0881 µM in assay [2]; 0.0158 µM in assay [3]; 1.27 µM in [4]; 0.0388 µM in [5]; 0.124 µM in assay [6]. Besides, the GI50 is 0.0351 µM in assay [7], 0.0497 µM in assay [8] and 0.0667 µM in [9]. For the same compound, the TGI in assay [1] was 5.08 µM; in [2] it was 14.8 µM; in assay [3], 0.059 µM; in assay [4], 22.9 µM; in assay [5], 3.05 µM; in assay [6], 3 µM. Also, the TGI in assay [7] was determined as 1.14 µM; in assay [8], 16.1 µM; in [9] it was 1.37 µM.

In the case of `COc1ccc2c3c1OC1C4(CCC5C(C2)N(CC2CC2)CCC351)OCCO4` (stereo unspecified), the TGI in assay [1], in assay [2], in assay [4], in assay [5], in [6] and in assay [7] was greater than 100 µM in each case. Also, the TGI in assay [8], in [9] and in assay [10] was greater than 100 µM each time.

Take `CC[C@H](C)C(=O)O[C@H]1C[C@@H](C)C=C2C=C[C@H](C)[C@H](CC[C@@H]3C[C@@H](O)CC(=O)O3)[C@H]21`: the GI50 in [2] was 3.43 µM and 1.38 µM; in assay [3], 0.283 µM and 0.162 µM; in assay [4] it was 32.5 µM and > 46.2 µM; in assay [5] it was 8.88 µM and 8.95 µM; in assay [6], 11.3 µM and 8.48 µM; in assay [7], 16.2 µM and 25.2 µM. The GI50 in assay [9] was 14.6 µM and 15.3 µM. The TGI in assay [2] was 29.8 µM and 6.03 µM and 23.4 µM; in [3] it was 2.2 µM and 1.1 µM and 2.82 µM; in [4], greater than 100 µM; in assay [5], > 100 µM and 53.7 µM and > 30 µM; in assay [6] it was > 100 µM and 25.2 µM; in assay [7], greater than 100 µM. Further, the TGI is greater than 100 µM in assay [8]; 51.3 µM and > 52.4 µM and 14.7 µM in assay [9].

Regarding `CCSc1nc(N)c(C#N)c(-c2ccc(OC)c(OC)c2)c1C#N`, the GI50 in assay [1] is 19.1 µM; in [2], greater than 50 µM; in assay [3] it was 15.8 µM; in assay [4], 9.13 µM; in assay [5], 14.8 µM; in assay [6], 39.5 µM. Besides, the GI50 is 26 µM in assay [7], 18.4 µM in [8] and 17.5 µM in [9]. In addition, the TGI in assay [1] is greater than 50 µM; in [2], greater than 50 µM; in assay [3], 40.7 µM; in [4], greater than 50 µM; in assay [5] it was greater than 50 µM; in [6], greater than 50 µM. Besides, the TGI in assay [7], in assay [8] and in assay [9] was greater than 50 µM each time.

In the case of `Cc1cc(O)cc(-c2nn(C)cc2-c2cc(N3CCOCC3)nc(-c3cccnc3)n2)c1`, the GI50 is 3.28 µM in assay [1]; 3.68 µM in [2]; 1.06 µM in assay [3]; 13.4 µM in [4]; 2.84 µM in assay [5]; 3.17 µM in assay [6]. The GI50 is 2.48 µM in assay [7], 2.9 µM in assay [9] and 1.48 µM in assay [10]. For the same compound, the TGI in assay [1] is 14.6 µM; in assay [2] it was 41.2 µM; in assay [3], 3.24 µM; in assay [4] it was 35.4 µM; in assay [5], 10.9 µM; in [6], 20.8 µM. Further, the TGI in assay [7] worked out at 12.5 µM; in [9], 9.57 µM; in assay [10] it was 4.49 µM.

Take `Nc1ncc(-c2ccc3ncnc(N4CCc5cc(F)c(Cl)cc54)c3c2)cc1C(F)(F)F`: the GI50 in assay [1] is 2.03 µM; in assay [2] it was 0.784 µM; in assay [4], 2.08 µM; in [5] it was 2.33 µM; in assay [6] it was 1.07 µM; in [7], 1.39 µM. In addition, the GI50 in assay [8] was 3.18 µM; in assay [10] it was 0.308 µM. Further, the TGI in assay [1] is greater than 100 µM; in assay [2], greater than 100 µM; in [4], greater than 100 µM; in [5] it was greater than 100 µM; in assay [6], 8.33 µM; in assay [7], greater than 100 µM. Also, the TGI in [8] is greater than 100 µM; in [10], 3.59 µM.

As for `Cc1ccc(Nn2c(SCC(=O)Nc3nc(-c4ccccc4)cs3)nc(C)c2C)cc1`, the GI50 in assay [1] was 1.06 µM; in assay [2] it was 4.06 µM; in assay [3] it was 17.4 µM; in [4], 2.12 µM; in assay [6], 3.18 µM; in [7], 8.24 µM. The GI50 in assay [8] was 18.4 µM; in assay [9], 3.98 µM; in [10], 2.81 µM. Further, the TGI in assay [1] is 5.89 µM; in [2], 62.9 µM; in assay [3] it was greater than 100 µM; in assay [4], 9.29 µM; in assay [6], 14.1 µM; in assay [7], greater than 100 µM. The TGI in assay [8] was greater than 100 µM; in [9], 34.4 µM; in assay [10], greater than 100 µM.

As for `O=C1c2ccccc2-c2c1c1ccc3ccccc3c1n2-c1ccccc1`, the GI50 was 22.9 µM in assay [1]; 20.5 µM in assay [2]; 64.8 µM in [4]; 65.1 µM in [5]; 44.7 µM in [6]; 24.6 µM in [7]. The GI50 in [8] is 25.1 µM; in assay [9], 30.7 µM; in [10], 81.2 µM. Besides, the TGI was 67.4 µM in [1]; 40.2 µM in assay [2]; greater than 100 µM in assay [4]; greater than 100 µM in assay [5]; greater than 100 µM in assay [6]; 57.6 µM in [7]. Also, the TGI in [8] is 58.7 µM; in [9], greater than 100 µM; in assay [10], greater than 100 µM.

`Fc1cccc(-c2nc(-c3c[nH]c4ncccc34)cs2)c1`: the GI50 in [1] is 36.8 µM; in assay [2] it was 9.68 µM; in assay [4], greater than 100 µM; in assay [5], greater than 100 µM; in assay [6], 44.8 µM; in assay [7] it was 60.5 µM. Also, the GI50 was 25.7 µM in assay [8], greater than 100 µM in assay [9] and 8.34 µM in assay [10]. Moreover, the TGI in assay [1], in assay [2], in assay [4], in [5], in [6] and in assay [7] was greater than 100 µM each time. The TGI in [8] is greater than 100 µM; in assay [9], greater than 100 µM; in assay [10], 42.8 µM.

On to `C=C(C)C1Cc2cc(C(C)=O)ccc2O1` (stereo unspecified), for which the TGI in [1], in assay [2], in [4], in [5], in assay [6] and in assay [7] was greater than 100 µM in each case. In addition, the TGI in [9] and in assay [10] was greater than 100 µM each time.

For the compound `CC(NNC(=S)N1CCN(c2ccccn2)CC1)c1cccc[n+]1[O-]` (stereo unspecified), the TGI in assay [1], in [2], in assay [4], in [6], in assay [7] and in assay [8] was greater than 100 µM in each case. Moreover, the TGI in assay [9] and in assay [10] was greater than 100 µM throughout.

`NC1=CC(=O)C(=O)c2ccccc21`: the GI50 is 12.7 µM in [1]; 16.2 µM in [2]; 79.2 µM in [3]; 5.63 µM in [4]; 11.2 µM in [5]; 12.4 µM in [7]. For the same compound, the values for the GI50 in [8], in assay [9] and in assay [10] were 18 µM, 26.6 µM and 13.8 µM, respectively. Also, the TGI in assay [1] is 33.4 µM; in assay [2], 50.1 µM; in assay [3], greater than 100 µM; in [4], 18.2 µM; in [5] it was 53.2 µM; in assay [7], 29.9 µM. The TGI in assay [8] is 40.7 µM; in assay [9], greater than 100 µM; in [10], 27.1 µM.

Consider `COc1ccc(-c2cncn2-c2ccc(-c3nc4cc(OC)c(OC)c(OC)c4s3)cc2)cc1N`, for which the GI50 is 4.44 µM in assay [1]; 5.59 µM in [2]; 4.83 µM in assay [3]; greater than 100 µM in [4]; 6.21 µM in [6]; 5.18 µM in [7]. In addition, the GI50 in assay [9] was 2.94 µM; in assay [10] it was 52.3 µM. Moreover, the TGI in [1], in [2], in assay [3], in [4], in assay [6] and in [7] was greater than 100 µM throughout. Moreover, the figures for the TGI in [9] and in [10] were 20.6 µM and greater than 100 µM, respectively.

Consider `O=C(/C=C/c1cc(O)ccc1O)c1ccc(Cl)cc1`, for which the GI50 is 35.3 µM in assay [1]; 25.2 µM in assay [2]; 51.3 µM in assay [4]; 25.9 µM in [6]; 57.7 µM in [7]; 20.5 µM in [8]. In addition, the GI50 in assay [9] was 38.2 µM. Moreover, the TGI in [1] is greater than 100 µM; in [2] it was greater than 100 µM; in [4], greater than 100 µM; in assay [6] it was 51.8 µM; in assay [7], greater than 100 µM; in [8], 52.2 µM. The TGI in assay [9] is greater than 100 µM.

As for `C#CCOCn1cnc2c(N)ncnc21`, the TGI in assay [1], in assay [2], in [3], in [4], in [5] and in [7] was greater than 100 µM throughout. Also, the TGI in assay [8], in assay [9] and in assay [10] was greater than 100 µM throughout.

As to `CNC(=O)NCCCCC(NC(=O)OCc1ccccc1)C(=O)OCc1ccccc1` (stereo unspecified), the TGI was 50.3 µM in [1]; 33.8 µM in assay [2]; greater than 100 µM in assay [3]; 34.5 µM in [4]; 51.4 µM in [5]; 32.1 µM in assay [7]. Besides, the TGI is 29.1 µM in assay [8], 31.9 µM in assay [9] and 41.6 µM in assay [10].

For the compound `CCSc1nnc(-c2ccc3ccccc3c2O)n1-c1ccccc1`, the GI50 in assay [4] is greater than 100 µM; in [6] it was greater than 100 µM; in [7], greater than 100 µM; in assay [8], 21.5 µM; in assay [10], 71 µM. Further, the TGI in assay [4], in [6], in [7], in assay [8] and in assay [10] was greater than 100 µM throughout.

Regarding `Clc1ccc2c(NCCNc3nc(N4CCCCC4)nc4ccccc34)ccnc2c1`, the GI50 in assay [1] is 1.71 µM; in assay [2], 1.79 µM; in assay [3], 10.2 µM; in [4], 1.94 µM; in [6], 2.01 µM; in assay [7], 1.75 µM. The results for the GI50 in [8], in [9] and in assay [10] were 2.62 µM, 1.19 µM and 1.78 µM, respectively. For the same compound, the TGI was 3.23 µM in [1]; 3.59 µM in [2]; 22.1 µM in assay [3]; 3.77 µM in [4]; 4.68 µM in assay [6]; 3.65 µM in assay [7]. Further, the TGI in assay [8] came to 8.84 µM; in assay [9], 2.84 µM; in [10], 7.46 µM.

For the compound `CC1=C(C(=O)NCc2ccccc2)C(c2ccc(N(C)C)cc2)C(C(=O)NCc2ccccc2)=C(C)N1`, the TGI in assay [1], in [2], in assay [3], in assay [4], in [5] and in [7] was greater than 100 µM each time. Also, the TGI in assay [8], in assay [9] and in assay [10] was greater than 100 µM each time.

`CCOc1cc(CCNC)c2c(ccc3ccc(OC)c(O)c32)c1OC`: the TGI in assay [1] was 30.1 µM; in assay [2], 26.5 µM; in assay [4] it was 29.6 µM; in assay [5] it was greater than 100 µM; in assay [6] it was 30.1 µM; in assay [7], 29.8 µM. Moreover, the figures for the TGI in assay [8], in assay [9] and in [10] were 37 µM, 42 µM and 32.3 µM, respectively.

(Values after PubChem BioAssay (NCI).)
